{"source": "paper PMC5740061", "about": "(Nature Communications, 2017)", "key": {"TEAD [1]": {"molecular_target": "T1, TEAD (Homo sapiens, UniProt P28347)", "T1 construct": "GST; made in house; host or cells: Hi5 insect cells (baculovirus, pIEX-BAC3 vector)", "T1 sequence (P28347 209-426)": "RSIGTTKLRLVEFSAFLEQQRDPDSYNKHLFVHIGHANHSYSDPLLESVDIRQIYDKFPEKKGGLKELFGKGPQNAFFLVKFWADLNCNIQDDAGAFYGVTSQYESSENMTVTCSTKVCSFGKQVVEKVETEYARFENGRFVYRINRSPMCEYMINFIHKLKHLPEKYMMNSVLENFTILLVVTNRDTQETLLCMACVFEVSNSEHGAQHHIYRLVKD", "experiment": "Reduction resistance of surface displayed optides (GSH or DTT, then TEAD binding)", "format": "physicochemical", "conditions": "10 mM glutathione for 5 mins, then TEAD binding (20 nM, 2-step stain)"}, "YAP:TEAD [2]": {"molecular_target": "T2, YAP:TEAD (Homo sapiens, UniProt P28347)", "format": "binding", "set-up": "GST; made in house; host or cells: TEAD from Hi5 insect cells", "conditions": "293F cells expressing SDGF-YAP, 5 nM TEAD, 0-100 nM optide"}, "YAP:TEAD [3]": {"molecular_target": "T2, YAP:TEAD", "format": "cell-based", "set-up": "endogenous in cells; host or cells: HeLa cells", "conditions": "HeLa cells, 5 µM optide with 5 µM dfTAT, 90 min; versus dfTAT alone, P < 0.0001"}, "[4]": {"experiment": "Circular dichroism thermostability", "format": "physicochemical", "conditions": "25-30 µM in 10 mM phosphate buffer pH 7.4, heated 20 to 95 °C at 2 °C per min, 220 nm", "description": "Protein secondary structures were assessed using circular dichrosim (CD). CD spectra were measured with a Jasco J-720W spectropolarimeter using a 1.0 mm path length cell. Protein samples (25-30 µM) in 10 mM phosphate buffer (pH 7.4) were analyzed at a wavelength range of 190 to 260 nm. […] Data are expressed in terms of relative ellipticity [θ], reported in mdeg."}, "HeLa cells": {"system": "HeLa cells", "experiment": "Cell penetration of DyLight 488 labelled optide in HeLa cells", "format": "cell-based", "conditions": "5 µM optide without dfTAT"}, "[5]": {"format": "physicochemical", "conditions": "SYPRO Orange, 0.1 mg/mL in PBS, 20 to 95 °C"}, "trypsin [6]": {"molecular_target": "T3, trypsin (Sus scrofa, UniProt P00761)", "T3 sequence (P00761 9-231)": "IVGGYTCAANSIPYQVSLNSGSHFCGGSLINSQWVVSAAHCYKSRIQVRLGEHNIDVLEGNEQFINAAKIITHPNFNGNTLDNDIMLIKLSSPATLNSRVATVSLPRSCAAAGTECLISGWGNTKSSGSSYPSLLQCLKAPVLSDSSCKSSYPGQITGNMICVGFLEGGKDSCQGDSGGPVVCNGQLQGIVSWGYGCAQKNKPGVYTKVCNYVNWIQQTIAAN", "experiment": "Protease stability in surface display (SDPR), trypsin", "format": "in vitro ADME", "set-up": "purchased Promega V5111", "conditions": "40 µg mL^-1 trypsin, SDPR-TB1G2 on 293F cells, then 5 mM DTT and iFluor 647 anti-6xHis staining"}, "[7]": {"experiment": "Reduction resistance of soluble optides (DTT or glutathione, RP-HPLC, LC/MS)", "format": "physicochemical", "conditions": "for reduction with 10 mM DTT: soluble optide, SDS-PAGE, mass spectrometry"}, "chymotrypsin": {"molecular_target": "T4, chymotrypsin (Bos taurus, UniProt P00766)", "T4 construct": "purchased Promega V1062", "experiment": "Protease stability in surface display (SDPR), chymotrypsin", "format": "in vitro ADME", "conditions": "40 µg mL^-1 chymotrypsin, SDPR-TB1G2 on 293F cells, then 5 mM DTT and iFluor 647 anti-6xHis staining"}, "trypsin [8]": {"molecular_target": "T3, trypsin"}, "YAP:TEAD [9]": {"molecular_target": "T2, YAP:TEAD", "format": "biochemical", "set-up": "plasmid # 66853; host or cells: 293T cells, RIPA lysates"}, "TEAD [10]": {"molecular_target": "T1, TEAD", "experiment": "Surface display TEAD binding by flow cytometry (SDGF, 293F cells)", "conditions": "tetravalent staining, SDGF-TB1G1 cells"}}, "note": "“Also recorded” adds a separate entry of the source. Where two headings read alike, the source gives them in different places. Bridge positions count the residues as written; N and C are the ends. Ends that are not written are not given here."}
{"compound": "CC[C@H](C)[C@H](NC(=O)[C@H](Cc1ccc(O)cc1)NC(=O)[C@H](CCC(=O)O)NC(=O)[C@H](CC(=O)O)NC(=O)[C@@H]1CCCN1C(=O)[C@H](CO)NC(=O)CN)C(=O)N[C@@H](CCC(=O)O)C(=O)N[C@@H](CCCNC(=N)N)C(=O)N[C@@H](C)C(=O)N[C@@H](CCCCN)C(=O)N[C@@H](CCC(=O)O)C(=O)N[C@H]1CSSC[C@@H]2NC(=O)[C@H](CCC(N)=O)NC(=O)[C@H]([C@@H](C)CC)NC(=O)[C@H](CC(=O)O)NC(=O)[C@H](CCC(N)=O)NC(=O)[C@H](CCCCN)NC(=O)[C@H](CCCCN)NC(=O)[C@H](CSSC[C@@H](C(=O)N[C@@H](Cc3c[nH]c4ccccc34)C(=O)O)NC(=O)[C@H](Cc3ccccc3)NC(=O)[C@H](CC(C)C)NC(=O)[C@@H]3CSSC[C@H](NC2=O)C(=O)N[C@@H](CC(C)C)C(=O)N[C@@H](CCCNC(=N)N)C(=O)N[C@@H]([C@@H](C)CC)C(=O)N[C@@H](Cc2ccccc2)C(=O)N[C@@H](CC(=O)O)C(=O)N[C@@H](CCC(=O)O)C(=O)N[C@@H](CO)C(=O)N[C@@H](CCCCN)C(=O)N[C@@H](CC(=O)O)C(=O)N2CCC[C@H]2C(=O)N[C@@H](CC(N)=O)C(=O)N[C@@H](C(C)C)C(=O)N[C@@H](CCSC)C(=O)N[C@@H](CC(C)C)C(=O)N[C@@H]([C@@H](C)CC)C(=O)N3)NC1=O", "note": "[TB1G2]", "values": [{"measurement": "stability under intracellular reducing conditions, surface displayed", "setting": "TEAD [1]", "value": "no effect on TB1G2 stability"}, {"measurement": "inhibition of YAP:TEAD-dependent cell staining", "setting": "YAP:TEAD [2]", "value": "much higher potency"}, {"measurement": "YAP:TEAD PLA speckles per nucleus", "setting": "YAP:TEAD [3]", "value": "reduction in speckles"}, {"measurement": "thermostability by circular dichroism", "setting": "[4]", "value": "no evidence of altered TB1G2 structure up to 95 °C; also recorded: identical before (Pre) and after (Post) incubation at 95 °C"}, {"measurement": "cell penetration", "setting": "HeLa cells", "value": "failed to demonstrate cell penetration; also recorded: not yet cell penetrant"}, {"measurement": "melting temperature", "setting": "[5]", "value": "no melting temperature could be determined"}, {"measurement": "protease stability in surface display, trypsin", "setting": "trypsin [6]", "value": "no change in anti-6xHis staining"}, {"measurement": "stability under intracellular reducing conditions, soluble", "setting": "[7]; 10 mM glutathione", "value": "no effect on TB1G2 stability"}, {"measurement": "reduction with 10 mM DTT", "setting": "[7]", "value": "incomplete reduction"}, {"measurement": "protease stability in surface display, chymotrypsin", "setting": "chymotrypsin", "value": "no change in anti-6xHis staining"}]}
{"compound": "Beta/delta-agatoxin-6 [Peptide 3]", "values": [{"measurement": "Trypsin Resistance", "setting": "trypsin [8]", "value": 102, "unit": "%"}]}
{"compound": "CC[C@H](C)[C@@H]1NC(=O)[C@H](CC(=O)O)NC(=O)CNC(=O)[C@H](CCCCN)NC(=O)[C@H](CCCCN)NC(=O)[C@@H]2CSSC[C@@H](C(=O)N3CCC[C@H]3C(=O)O)NC(=O)[C@H](Cc3ccccc3)NC(=O)[C@H](CC(C)C)NC(=O)[C@@H]3CSSC[C@H](NC(=O)[C@H](CSSC[C@H](NC(=O)[C@H](CCC(=O)O)NC(=O)[C@H](CCCCN)NC(=O)[C@H](C)NC(=O)[C@H](CCCNC(=N)N)NC(=O)[C@H](CCC(=O)O)NC(=O)[C@@H](NC(=O)[C@H](Cc4ccc(O)cc4)NC(=O)[C@H](CCC(=O)O)NC(=O)[C@H](CC(=O)O)NC(=O)[C@@H]4CCCN4C(=O)[C@H](CO)NC(=O)CN)[C@@H](C)CC)C(=O)N2)NC(=O)[C@H](CCC(N)=O)NC1=O)C(=O)N[C@@H](CC(C)C)C(=O)N[C@@H](CCCNC(=N)N)C(=O)N[C@@H](Cc1ccc(O)cc1)C(=O)N[C@@H](Cc1ccccc1)C(=O)N[C@@H](CCC(=O)O)C(=O)N[C@@H](CCC(=O)O)C(=O)N[C@@H](CO)C(=O)NCC(=O)N[C@@H](CC(=O)O)C(=O)N1CCC[C@H]1C(=O)N[C@@H](CC(N)=O)C(=O)N[C@@H](C(C)C)C(=O)N[C@@H](CCSC)C(=O)N[C@@H](CC(C)C)C(=O)N[C@@H]([C@@H](C)CC)C(=O)N3", "note": "[TB1G1]", "values": [{"measurement": "inhibition of YAP:TEAD-dependent cell staining", "setting": "YAP:TEAD [2]", "value": "inhibited YAP:TEAD-dependent cell staining"}, {"measurement": "inhibition of FLAG-YAP co-immunoprecipitation with Myc-TEAD", "setting": "YAP:TEAD [9]; 293T cell lysate, 30 min at 4 °C", "value": "dose-dependent inhibition"}, {"measurement": "TEAD concentration at which binding was still detectible", "setting": "TEAD [10]", "value": 64, "unit": "pM"}, {"measurement": "TEAD concentration of peak signal:noise", "setting": "TEAD [10]", "value": 8, "unit": "nM"}, {"measurement": "reduction with 10 mM DTT", "setting": "[7]", "value": "complete"}]}
{"compound": "GSYTDCTESGQNLCLCEGSNVCGKGNKCILGSQGKDNQCVTG (also: bicyclic or more (positions not given here)) [Peptide 5, Hirudin-PA]", "values": [{"measurement": "Trypsin Resistance", "setting": "trypsin [8]", "value": 75, "unit": "%"}]}
{"compound": "CC[C@H](C)[C@H](NC(=O)[C@H](Cc1ccc(O)cc1)NC(=O)[C@H](CCC(=O)O)NC(=O)[C@H](CC(=O)O)NC(=O)[C@@H]1CCCN1C(=O)[C@H](CO)NC(=O)CN)C(=O)N[C@@H](CCC(=O)O)C(=O)N[C@@H](CCCNC(=N)N)C(=O)N[C@@H](C)C(=O)N[C@@H](CCCCN)C(=O)N[C@@H](CCC(=O)O)C(=O)N[C@H]1CSSC[C@@H]2NC(=O)[C@H](CCC(N)=O)NC(=O)[C@H]([C@@H](C)CC)NC(=O)[C@H](CC(=O)O)NC(=O)[C@H](CCC(N)=O)NC(=O)[C@H](CCCCN)NC(=O)[C@H](CCCCN)NC(=O)[C@H](CSSC[C@@H](C(=O)N3CCC[C@H]3C(=O)O)NC(=O)[C@H](Cc3ccccc3)NC(=O)[C@H](CC(C)C)NC(=O)[C@@H]3CSSC[C@H](NC2=O)C(=O)N[C@@H](CC(C)C)C(=O)N[C@@H](CCCNC(=N)N)C(=O)N[C@@H]([C@@H](C)CC)C(=O)N[C@@H](Cc2ccccc2)C(=O)N[C@@H](CC(=O)O)C(=O)N[C@@H](CCC(=O)O)C(=O)N[C@@H](CO)C(=O)N[C@@H](CCCCN)C(=O)N[C@@H](CC(=O)O)C(=O)N2CCC[C@H]2C(=O)N[C@@H](CC(N)=O)C(=O)N[C@@H](C(C)C)C(=O)N[C@@H](CCSC)C(=O)N[C@@H](CC(C)C)C(=O)N[C@@H]([C@@H](C)CC)C(=O)N3)NC1=O", "note": "[TB1G2-W40P]", "values": [{"measurement": "thermostability by circular dichroism", "setting": "[4]", "value": "identical before (Pre) and after (Post) incubation at 95 °C"}, {"measurement": "melting temperature", "setting": "[5]", "value": "no melting temperature could be determined"}]}
{"compound": "Venom defensin-like peptide A [Peptide 2]", "values": [{"measurement": "Trypsin Resistance", "setting": "trypsin [8]", "value": 84, "unit": "%"}]}
{"compound": "H-GSPDEYIERAKECCKKGDIQCCLRYFEESGDPNVMLICLACP-OH (disulfide 13-21, 14-41, 22-38) [TB1G1-F38A]", "values": [{"measurement": "inhibition of FLAG-YAP co-immunoprecipitation with Myc-TEAD", "setting": "YAP:TEAD [9]", "value": "not"}]}
{"compound": "Turripeptide IX-01 [Peptide 8]", "values": [{"measurement": "Trypsin Resistance", "setting": "trypsin [8]", "value": 96, "unit": "%"}]}
{"compound": "GSAPPCKRDVDCSFECPKGGFCNDRLGTCDCF (also: bicyclic or more (positions not given here)) [Peptide 1, Putative defensin-like protein 257]", "values": [{"measurement": "Trypsin Resistance", "setting": "trypsin [8]", "value": 90, "unit": "%"}]}
{"compound": "U9-theraphotoxin-Cj1a [Peptide 11]", "values": [{"measurement": "Trypsin Resistance", "setting": "trypsin [8]", "value": 46, "unit": "%"}]}
{"compound": "GSSVPCVSTRGSCKPPAPACCHPCASCQCRFFRSACSCRVLNVNC (also: bicyclic or more (positions not given here)) [Peptide 12, Agouti-signaling protein]", "values": [{"measurement": "Trypsin Resistance", "setting": "trypsin [8]", "value": 60, "unit": "%"}]}
{"compound": "GSVDGCQETCTKMIRCQFFTYSLFPEDCRGEKCKCSLR (also: bicyclic or more (positions not given here)) [Peptide 16, Plasma kallikrein]", "values": [{"measurement": "Trypsin Resistance", "setting": "trypsin [8]", "value": 50, "unit": "%"}]}
{"compound": "GSKEICERPNGSCRDFCLETEIHVGRCLNSQPCCLPL (also: bicyclic or more (positions not given here)) [Peptide 4, Beta-defensin 108B]", "values": [{"measurement": "Trypsin Resistance", "setting": "trypsin [8]", "value": 95, "unit": "%"}]}
{"compound": "GSKDYCPGICNVAAVPDCDTLCISLGYSGGYCRAGRICCCNPK (also: bicyclic or more (positions not given here)) [Peptide 7, Uncharacterized protein]", "values": [{"measurement": "Trypsin Resistance", "setting": "trypsin [8]", "value": 96, "unit": "%"}]}
{"compound": "GSDLVCYCRKRGCKRREHMNGTCRRGHLMYTLCCR (also: bicyclic or more (positions not given here)) [Peptide 10, Alpha-defensin 13]", "values": [{"measurement": "Trypsin Resistance", "setting": "trypsin [8]", "value": 43, "unit": "%"}]}
{"compound": "GSPMTCEQAMASCEHTMCGYCQGPLYMTCIGITTDPECGLP (also: bicyclic or more (positions not given here)) [Peptide 6, Mating pheromone Er-2/Er-9]", "values": [{"measurement": "Trypsin Resistance", "setting": "trypsin [8]", "value": 97, "unit": "%"}]}
{"compound": "GSGICACRRRFCLNFEQFSGYCRVNGARYVRCCSRR (also: bicyclic or more (positions not given here)) [Peptide 9, Corticostatin-6]", "values": [{"measurement": "Trypsin Resistance", "setting": "trypsin [8]", "value": 65, "unit": "%"}]}
{"compound": "GSRGQCWSYSNCRAVCRDEGYVSGHCNYFGGACWCAS (also: bicyclic or more (positions not given here)) [Peptide 13, Putative uncharacterized protein]", "values": [{"measurement": "Trypsin Resistance", "setting": "trypsin [8]", "value": 52, "unit": "%"}]}
